Literature values in patent US20010007758A1, “Treatment of multiple sclerosis using COP-1 and Th2-enhancing cytokines” (Autoimmune, Inc., priority 1998, published 2001).

Key:
[1] = test system: MBP-specific T cells; settings: experiments in mice
[2] = test system: EAE; settings: oral administration to rats
[3] = test system: experimental allergic encephalitis (EAE); settings: in vivo
[4] = test system: MS; settings: daily subcutaneous injections of 20 mg
[5] = test system: T suppressor cells specific for MBP
[6] = test system: T cell; settings: oral administration to rats
[7] = test system: EAE; settings: oral feeding; EAE induced with 0.4 mg mouse MBP; monitored 35 days

| Molecule | effect on MBP-specific T cells involved in destruction of central nervous system tissue in EAE [1] | severity and incidence of EAE [2] | encephalitogenicity (causes EAE when injected) [3] | Expanded Disability Status Scale [4] | annualized relapse rate, lower in treated patients [4] | proportion of patients that did not have a relapse in clinical disease [4] | induction of T suppressor cells specific for MBP [5] | T cell proliferative responses [6] | TH1 cytokine production [6] | delay in disease onset [7] |
| --- | --- | --- | --- | --- | --- | --- | --- | --- | --- | --- |
| glatiramer acetate [COP-1] | specifically inhibits | suppressed | not encephalitogenic | significant improvement | 29% | 34% | induce T suppressor cells | inhibited | inhibited | – |
| IL-4: interleukin-4, a Th2-enhancing cytokine (protein, UniProt P05112 25-153, looked up) Interleukin-4: HKCDITLQEIIKTLNSLTEQKTLCTELTVTDIFAASKNTTEKETFCRAATVLRQFYSHHEKDTRCLGATAQQFHRHKQLIRFLKRLDRNLWGLAGLNSCPVKEANQSTLENFLERLKTIMREKYSKCSS | – | – | – | – | – | – | – | – | – | 21 days |
| MBP: myelin basic protein, a component of myelin in the central nervous system (protein, UniProt P02686 1-304, looked up) Myelin basic protein: MGNHAGKRELNAEKASTNSETNRGESEKKRNLGELSRTTSEDNEVFGEADANQNNGTSSQDTAVTDSKRTADPKNAWQDAHPADPGSRPHLIRLFSRDAPGREDNTFKDRPSESDELQTIQEDSAATSESLDVMASQKRPSQRHGSKYLATASTMDHARHGFLPRHRDTGILDSIGRFFGGDRGAPKRGSGKDSHHPARTAHYGSLPQKSHGRTQDENPVVHFFKNIVTPRTPPPSQGKGRGLSLSRFSWGAEGQRPGFGYGGRASDYKSAHKGFKGVDAQGTLSKIFKLGGRDSRSGSPMARR | – | – | highly encephalitogenic | – | – | – | – | – | – | 22 days |
